What was measured:
Type in all cases: in vivo
[1] = tested on: barnyardgrass (Echinochloa crus-galli); assay: Test A pre-/postemergence plant response
In short: (§1)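 Approximately ten days after concurrent pre- and postemergence spraying in a greenhouse, plants were compared with untreated controls and rated visually for injury, 0 = no effect to 100 = complete control. Preemergence spray was directed onto loam/sand soil; postemergence targeted 1–2 leaf seedlings.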

corn (Zea mays) = assay: Test A pre-/postemergence plant response
In short: as §1

[2] = tested on: giant foxtail (Setaria faberii); assay: Test A pre-/postemergence plant response
In short: as §1

[3] = tested on: large crabgrass (Digitaria sanguinalis); assay: Test A pre-/postemergence plant response
In short: as §1

[4] = tested on: morningglory (Ipomoea spp.); assay: Test A pre-/postemergence plant response
In short: as §1

[5] = tested on: pigweed (Amaranthus retroflexus); assay: Test A pre-/postemergence plant response
In short: as §1

[6] = tested on: velvetleaf (Abutilon theophrasti); assay: Test A pre-/postemergence plant response
In short: as §1

[7] = tested on: wheat (Triticum aestivum); assay: Test A pre-/postemergence plant response
In short: as §1

[8] = tested on: barnyardgrass (Echinochloa crus-galli); assay: Test B flooded paddy test; conditions: for Plant response rating, Barnyardgrass: Flood (flooded paddy test), 13 to 15 days; for Barnyardgrass plant response rating: Flood, 31 g ai/ha, scale 0 to 100 (0 no effect, 100 complete control)
In short: (§2)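 Each compound is added to standing floodwater (3 cm above soil, maintained) in pots of 2-leaf-stage plants; greenhouse exposure lasts 13–15 d before visual comparison with controls on a 0–100 control scale.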

[9] = tested on: ducksalad (Heteranthera limosa); assay: Test B flooded paddy test; conditions: for Plant response rating, Ducksalad: Flood (flooded paddy test), 13 to 15 days; for Ducksalad plant response rating: Flood, 31 g ai/ha, scale 0 to 100 (0 no effect, 100 complete control)
In short: as §2

rice (Oryza sativa) = assay: Test B flooded paddy test; conditions: for Plant response rating, Rice: Flood (flooded paddy test), 13 to 15 days; for Rice plant response rating: Flood, 31 g ai/ha, scale 0 to 100 (0 no effect, 100 complete control)
In short: as §2

[10] = tested on: umbrella sedge (Cyperus difformis); assay: Test B flooded paddy test; conditions: for Plant response rating, Sedge, Umbrella: Flood (flooded paddy test), 13 to 15 days; for Sedge, Umbrella plant response rating: Flood, 31 g ai/ha, scale 0 to 100 (0 no effect, 100 complete control)
In short: as §2

[11] = Postemergence, 125 g ai/ha, 0 to 100 scale where 0 is no effect and 100 is complete control
[12] = Postemergence, 500 g ai/ha, 0 to 100 scale, 0 = no effect, 100 = complete control, approx. ten days
[13] = Preemergence, 125 g ai/ha, 0 to 100 scale, 0 = no effect, 100 = complete control
[14] = Preemergence, 500 g ai/ha, visual injury, 0 to 100 scale (0 no effect, 100 complete control), approx. ten days
[15] = Preemergence, 500 g ai/ha, 0 to 100 scale, 0 = no effect, 100 = complete control
[16] = 125 g ai/ha, scale 0 to 100, 0 is no effect, 100 is complete control
[17] = Postemergence, 500 g ai/ha, visual injury, 0 to 100 scale (0 no effect, 100 complete control), approx. ten days
[18] = 250 g ai/ha, flooded paddy test, visual rating on 0 to 100 scale (0 no effect, 100 complete control) after 13 to 15 days
[19] = 62 g ai/ha, scale of 0 to 100 where 0 is no effect and 100 is complete control

## Cc1ccc(F)cc1-n1c(-c2cccc(Cl)c2)ncc(C(=O)C2=C(O)CCCC2=O)c1=O [Compound 157]
[1]; [11]
  Plant response rating, Barnyardgrass: 90
[1]; [12]
  Plant response rating, Barnyardgrass: 100
[1]; [13]
  Plant response rating, Barnyardgrass: 0
[1]; [14]
  Plant response rating, Barnyardgrass: 50
Corn (Zea mays); [11]
  Plant response rating, Corn: 0
Corn (Zea mays); [12]
  Plant response rating, Corn: 30
Corn (Zea mays); [13]
  Plant response rating, Corn: 0
Corn (Zea mays); [14]
  Plant response rating, Corn: 0
[2]; [11]
  Plant response rating, Foxtail, Giant: 90
[2]; [12]
  Plant response rating, Foxtail, Giant: 100
[2]; [13]
  Plant response rating, Foxtail, Giant: 10
[2]; [14]
  Plant response rating, Foxtail, Giant: 50
[3]; [11]
  Plant response rating, Crabgrass, Large: 80
[3]; [12]
  Plant response rating, Crabgrass, Large: 100
[3]; [13]
  Plant response rating, Crabgrass, Large: 20
[3]; [14]
  Plant response rating, Crabgrass, Large: 70
[4]; [11]
  Plant response rating, Morningglory: 10
[4]; [12]
  Plant response rating, Morningglory: 30
[4]; [13]
  Plant response rating, Morningglory: 0
[4]; [14]
  Plant response rating, Morningglory: 0
[5]; [11]
  Plant response rating, Pigweed: 90
[5]; [12]
  Plant response rating, Pigweed: 100
[5]; [13]
  Plant response rating, Pigweed: 0
[5]; [14]
  Plant response rating, Pigweed: 50
[6]; [11]
  Plant response rating, Velvetleaf: 100
[6]; [12]
  Plant response rating, Velvetleaf: 100
[6]; [13]
  Plant response rating, Velvetleaf: 60
[6]; [15]
  Plant response rating, Velvetleaf: 100
[7]; [11]
  Plant response rating, Wheat: 0
[7]; [12]
  Plant response rating, Wheat: 0
[7]; [13]
  Plant response rating, Wheat: 0
[7]; [15]
  Plant response rating, Wheat: 0
[8]; [16]
  Plant response rating, Barnyardgrass: 0
[8]
  Barnyardgrass plant response rating: 0
[9]; [16]
  Plant response rating, Ducksalad: 70
[9]
  Ducksalad plant response rating: 50
Rice (Oryza sativa); [16]
  Plant response rating, Rice: 0
Rice (Oryza sativa)
  Rice plant response rating: 0
[10]; [16]
  Plant response rating, Sedge, Umbrella: 75
[10]
  Sedge, Umbrella plant response rating: 40

## O=C1CCCC(O)=C1C(=O)c1cnc(-c2ccccc2)n(C2CCSCC2)c1=O [Compound 164]
[1]; [11]
  Plant response rating, Barnyardgrass: 100
[1]; [17]
  Barnyardgrass plant response rating: 100
[1]; [13]
  Plant response rating, Barnyardgrass: 10
[1]; [15]
  Plant response rating, Barnyardgrass: 80
Corn (Zea mays); [11]
  Plant response rating, Corn: 10
Corn (Zea mays); [17]
  Corn plant response rating: 50
Corn (Zea mays); [13]
  Plant response rating, Corn: 0
Corn (Zea mays); [15]
  Plant response rating, Corn: 0
[2]; [11]
  Plant response rating, Foxtail, Giant: 100
[2]; [17]
  Foxtail, Giant plant response rating: 100
[2]; [13]
  Plant response rating, Foxtail, Giant: 40
[2]; [15]
  Plant response rating, Foxtail, Giant: 70
[3]; [11]
  Plant response rating, Crabgrass, Large: 90
[3]; [17]
  Crabgrass, Large plant response rating: 100
[3]; [13]
  Plant response rating, Crabgrass, Large: 30
[3]; [15]
  Plant response rating, Crabgrass, Large: 90
[4]; [11]
  Plant response rating, Morningglory: 100
[4]; [17]
  Morningglory plant response rating: 100
[4]; [13]
  Plant response rating, Morningglory: 10
[4]; [15]
  Plant response rating, Morningglory: 50
[5]; [11]
  Plant response rating, Pigweed: 100
[5]; [17]
  Pigweed plant response rating: 100
[5]; [13]
  Plant response rating, Pigweed: 60
[5]; [15]
  Plant response rating, Pigweed: 100
[6]; [11]
  Plant response rating, Velvetleaf: 100
[6]; [17]
  Velvetleaf plant response rating: 100
[6]; [13]
  Plant response rating, Velvetleaf: 40
[6]; [15]
  Plant response rating, Velvetleaf: 70
[7]; [11]
  Plant response rating, Wheat: 0
[7]; [17]
  Wheat plant response rating: 20
[7]; [13]
  Plant response rating, Wheat: 0
[7]; [15]
  Plant response rating, Wheat: 0
[8]; [18]
  Plant response rating, Flood, Barnyardgrass: 0
[8]; [19]
  Plant response rating, Barnyardgrass: 0
[8]; [16]
  Plant response rating, Barnyardgrass: 0
[8]
  Barnyardgrass plant response rating: 0
[9]; [18]
  Plant response rating, Flood, Ducksalad: 85
[9]; [19]
  Plant response rating, Ducksalad: 0
[9]; [16]
  Plant response rating, Ducksalad: 0
[9]
  Ducksalad plant response rating: 0
Rice (Oryza sativa); [18]
  Plant response rating, Flood, Rice: 35
Rice (Oryza sativa); [19]
  Plant response rating, Rice: 0
Rice (Oryza sativa); [16]
  Plant response rating, Rice: 20
Rice (Oryza sativa)
  Rice plant response rating: 0
[10]; [18]
  Plant response rating, Flood, Sedge, Umbrella: 90
[10]; [19]
  Plant response rating, Sedge, Umbrella: 0
[10]; [16]
  Plant response rating, Sedge, Umbrella: 0
[10]
  Sedge, Umbrella plant response rating: 0

Reference: patent US8952024B2, “Herbicidal pyrimidone derivatives” (E I du Pont de Nemours and Company, priority 2009, dated 2015)
